Data from US20260355330A1, “CELL PENETRATING PEPTIDES AND USES THEREOF” (VECTIOPEP OÜ, priority 2022, published 2026).

Legend:
CHO-K1 cells = assay: Delivery of reporter mRNA with CPPs in cell culture (luciferase luminescence 24 h post-transfection); assay type: cell-based
Procedure, shortened: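 CHO-K1 cells (10,000/well) transfected in 10% FBS DMEM with 0.1 μg firefly luciferase mRNA complexed with CPP at 3:1 charge ratio (peptide excess). Luminescence read in lysates 24 h later, normalised to BCA total protein (RLU/mg).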

[1] = in words; previously reported; cited from earlier work
[2] = test system: spleen cell subtypes (T cells, macrophages, dendritic cells, rest of the lymphocytes); assay: Immunophenotyping the spleen cell subtypes post-transfection of mRNA with NF55 in vivo; parameters: species or system mice; conditions: in words; luciferase mRNA 30 μg, CR2, i.v., 16 h post-injection
Protocol: FIG. 6: Reporter levels detected from spleen cells subtypes collected from NF55/mRNA treated mice. Reporter protein levels were evaluated from the sorted splenocytes: T cells, Macrophages, Dendritic cells and the rest of the lymphocytes. Results are shown as the fold change compared to untreated mice.
To analyse the cell subtypes that were transfected with the CPP, 30 μg of luciferase-encoding mRNA was complexed with the CPP at CR2 in water and injected i.v. 16 h post-injection, the spleens were collected into ice-cold dissociation buffer (1×PBS without Ca^2+ and Mg^2+ supplemented with 2 mM EDTA). Following gentle mechanical dissociation by grinding, splenic cells were strained with 100 μm cell strainer and centrifuged for 5 min at +4 °C, 300×g. A 2-minute incubation with 1 ml of RBC lysis buffer ACK (Thermo) was used for the red blood cell lysis. Flow cytometry buffer (dissociation buffer supplemented with 0.5% (w/v) BSA) was added, cells were centrifuged for 5 min at +4 °C, 300×g and counted. […]
In order to determine to which types of spleen cells mRNA were transfected in vivo, cells collected from the spleens of transfected animals were sorted according to their subtype and the reporter expression measured. mRNA encoding luciferase (mRNA (luc)) was used as a reporter model.

In the case of `CCCCCCCCCCCCCCCCCC(=O)N[C@@H](C)C(=O)NCC(=O)N[C@@H](Cc1ccc(O)cc1)C(=O)N[C@@H](CC(C)C)C(=O)N[C@@H](CC(C)C)C(=O)NCC(=O)NCCC[C@H](N)C(=O)N[C@H](C(=O)N[C@@H](CC(N)=O)C(=O)N[C@@H](CC(C)C)C(=O)N[C@@H](CCCCN)C(=O)N[C@@H](C)C(=O)N[C@@H](CC(C)C)C(=O)N[C@@H](C)C(=O)N[C@@H](C)C(=O)N[C@@H](CC(C)C)C(=O)N[C@@H](C)C(=O)N[C@@H](CCCCN)C(=O)N[C@@H](C)C(=O)N[C@H](C(=O)N[C@@H](CC(C)C)C(N)=O)[C@@H](C)CC)[C@@H](C)CC` [NF55], the “Average RLU/mg (reporter levels post-transfection of mRNA)” value (CHO-K1 cells; firefly luciferase mRNA, 0.1 μg per well, charge ratio 3:1, serum containing media, 24 h, RLU normalised to total protein in lysate) is given as 1 270 000 000 RLU/mg, the “Efficiency of mRNA transfection/delivery” value (CHO-K1 cells; in words, FIG. 1 / Table 2, cell culture) is given as “the most efficient” and the pDNA delivery efficiency [1] is given as “excellent vector for the delivery of DNA in vivo”. The “Reporter signal in spleen cell subtypes” value [2] was “the majority of the reporter signal arose from the dendritic cells (DCs)”.
